Literature values, collected in patent US7097855B1, “Transdermal thermal polymerization” (Massachusetts Institute of Technology, priority 2000, dated 2006).

Columns and labels:
[1] = at 20° C.
[2] = system: rat

CC(C)(N=NC(C)(C)C1=NCCN1)C1=NCCN1.Cl.Cl [AZODIA HCl, 2,2′-azobis-(N,N′-dimethyleneisobutyramidine) dihydrochloride]
water solubility [1]: 35.2 g/100 g solvent | LD50 (oral, rat), female ([2]; female): 2800 mg/kg | LD50 (oral, rat), male ([2]; male): 3200 mg/kg
